The experiment deals with L1210 leukemia ip in BDF1 mice, survival T/C. Briefly: NCI In Vivo Anticancer Drug Screen. Data for tumor model L1210 Leukemia (intraperitoneal) in B6D2F1 (BDF1) mice. Conditions: endpoint: mean survival time, higher = longer survival. Put shortly:
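Transplanted-tumor mice were given test agent; controls received vehicle only. Survival readings from the two groups were divided (treated over control).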

Where [1] appears, read: dose: 100.0 mg/kg/injection, schedule: Q01DX001 (ip), vehicle: saline.
Where [2] appears, read: dose: 200.0 mg/kg/injection, schedule: Q01DX001 (ip), vehicle: saline.
The mark [3] stands for this setting: dose: 400.0 mg/kg/injection, schedule: Q01DX001 (ip), vehicle: saline.
Where [4] appears, read: dose: 25.0 mg/kg/injection, schedule: Q01DX009 (ip), vehicle: Klucel (hydroxypropylcellulose) (HPC).
Setting [5] is: dose: 100.0 mg/kg/injection, schedule: Q01DX009 (ip), vehicle: Klucel (hydroxypropylcellulose) (HPC).
Setting [6] is: dose: 200.0 mg/kg/injection, schedule: Q01DX009 (ip), vehicle: Klucel (hydroxypropylcellulose) (HPC).
[7] abbreviates: dose: 400.0 mg/kg/injection, schedule: Q01DX009 (ip), vehicle: Klucel (hydroxypropylcellulose) (HPC).
The mark [8] stands for this setting: dose: 100.0 mg/kg/injection, schedule: Q04DX003 (ip), vehicle: saline.
Setting [9] is: dose: 200.0 mg/kg/injection, schedule: Q04DX003 (ip), vehicle: saline.
Setting [10] is: dose: 400.0 mg/kg/injection, schedule: Q04DX003 (ip), vehicle: saline.
[11] abbreviates: dose: 100.0 mg/kg/injection, schedule: Q01DX009 (ip), vehicle: saline with Tween-80.
The mark [12] stands for this setting: dose: 100.0 mg/kg/injection, schedule: Q04DX003 (ip), vehicle: saline with Tween-80.
Setting [13] is: dose: 200.0 mg/kg/injection, schedule: Q01DX009 (ip), vehicle: saline with Tween-80.
Setting [14] is: dose: 200.0 mg/kg/injection, schedule: Q04DX003 (ip), vehicle: saline with Tween-80.
The mark [15] stands for this setting: dose: 400.0 mg/kg/injection, schedule: Q01DX009 (ip), vehicle: saline with Tween-80.
[16] abbreviates: dose: 400.0 mg/kg/injection, schedule: Q04DX003 (ip), vehicle: saline with Tween-80.
Where [17] appears, read: dose: 100.0 mg/kg/injection, schedule: Q01DX009 (ip), vehicle: saline.
Where [18] appears, read: dose: 200.0 mg/kg/injection, schedule: Q01DX009 (ip), vehicle: saline.

Several values for one entry are separate records, joined by “and”; a condition that tells them apart may be missing. Equal values may be shown once. Toxic doses and inconclusive results are not listed.

In the case of `COc1cc(C(=O)OC2CC34CCNC35CC(OC5(OC)C2O)c2cc3c(cc24)OCO3)ccc1O` (stereo not drawn), the T/C was 100 % of control (dose: 0.25 mg/kg/injection, schedule: Q01DX015 (ip), vehicle: carboxymethylcellulose (CMC)); 100 % of control (dose: 0.5 mg/kg/injection, schedule: Q01DX015 (ip), vehicle: carboxymethylcellulose (CMC)); 103 % of control (dose: 0.75 mg/kg/injection, schedule: Q01DX015 (ip), vehicle: carboxymethylcellulose (CMC)); 95 % of control (dose: 1.0 mg/kg/injection, schedule: Q01DX009 (ip), vehicle: carboxymethylcellulose (CMC)); 104 % of control and 108 % of control (dose: 1.0 mg/kg/injection, schedule: Q01DX015 (ip), vehicle: carboxymethylcellulose (CMC)); 96 % of control (dose: 1.25 mg/kg/injection, schedule: Q01DX015 (ip), vehicle: carboxymethylcellulose (CMC)). Also, the T/C reads like this: (dose: 1.5 mg/kg/injection, schedule: Q01DX015 (ip), vehicle: carboxymethylcellulose (CMC)) 102 % of control; (dose: 1.75 mg/kg/injection, schedule: Q01DX015 (ip), vehicle: carboxymethylcellulose (CMC)) 98 % of control; (dose: 2.0 mg/kg/injection, schedule: Q01DX009 (ip), vehicle: carboxymethylcellulose (CMC)) 92 % of control; (dose: 2.0 mg/kg/injection, schedule: Q01DX015 (ip), vehicle: carboxymethylcellulose (CMC)) 93 % of control; (dose: 2.5 mg/kg/injection, schedule: Q01DX015 (ip), vehicle: carboxymethylcellulose (CMC)) 96 % of control.

In the case of `O=C(O)C1OC(n2cc(F)c(=O)[nH]c2=O)CC1O` (stereo not drawn), the T/C by setting is: (dose: 50.0 mg/kg/injection, schedule: Q01DX001 (ip), vehicle: saline) 101 % of control; under setting [1], 101 % of control; under setting [2], 98 % of control; under setting [3], 110 % of control.

With `NC1(C(=O)NCC(=O)O)C2CC3CC(C2)CC1C3` (stereo not drawn), the T/C was 94 % of control under setting [4]; 100 % of control (dose: 50.0 mg/kg/injection, schedule: Q01DX009 (ip), vehicle: Klucel (hydroxypropylcellulose) (HPC)); 97 % of control and 99 % of control under setting [5]; 103 % of control under setting [6]; 102 % of control under setting [7].

As to `CC(C)N=Cc1cc(Br)cc(Br)c1O.CC(C)N=Cc1cc(Br)cc(Br)c1O.[Co]`, the T/C under setting [8] was 88 % of control, the T/C under setting [9] was 91 % of control and the T/C under setting [10] is 105 % of control.

`O=C1CCCc2cc(Cl)c(Cl)cc21`: the T/C was 108 % of control under setting [5], 96 % of control under setting [6] and 101 % of control under setting [7].

As for `CCN(CC)c1ccc(NC(=O)Nc2ccccc2C)cc1`, the T/C by setting is: under setting [11], 93 % of control; under setting [12], 100 % of control; under setting [13], 90 % of control; under setting [14], 94 % of control; under setting [15], 94 % of control; under setting [16], 94 % of control.

In the case of `CC(C)(CO)Nc1ccccc1`, the T/C under setting [12] is 114 % of control, the T/C under setting [14] is 90 % of control and the T/C under setting [16] is 97 % of control.

As to `CCCCCCCCCCCCCCCCCC[N+]1(C)CCOCC1`, the T/C by setting is: (dose: 6.25 mg/kg/injection, schedule: Q01DX009 (ip), vehicle: Klucel (hydroxypropylcellulose) (HPC)) 94 % of control; (dose: 12.5 mg/kg/injection, schedule: Q01DX009 (ip), vehicle: Klucel (hydroxypropylcellulose) (HPC)) 100 % of control; under setting [4], 97 % of control.

In the case of `O=c1c2cn[nH]c2nc2ccccn12`, the T/C by setting is: under setting [1], 96 % of control; under setting [2], 94 % of control; under setting [3], 94 % of control.

For the compound `C=CCc1ccc(OC(=O)Nc2cc(Cl)ccc2C)c(OC)c1`, the T/C (dose: 100.0 mg/kg/injection, schedule: Q01DX001 (ip), vehicle: saline with Tween-80) is 93 % of control; the T/C under setting [11] is 106 % of control and 87 % of control; the T/C (dose: 100.0 mg/kg/injection, schedule: Q04DX002 (ip), vehicle: saline with Tween-80) is 101 % of control and 92 % of control; the T/C under setting [12] is 103 % of control; the T/C (dose: 200.0 mg/kg/injection, schedule: Q01DX001 (ip), vehicle: saline with Tween-80) is 97 % of control; the T/C under setting [13] is 101 % of control and 87 % of control. For the same compound, the T/C reads like this: (dose: 200.0 mg/kg/injection, schedule: Q04DX002 (ip), vehicle: saline with Tween-80) 95 % of control and 97 % of control; under setting [14], 101 % of control; (dose: 400.0 mg/kg/injection, schedule: Q01DX001 (ip), vehicle: saline with Tween-80) 92 % of control; under setting [15], 101 % of control and 102 % of control; (dose: 400.0 mg/kg/injection, schedule: Q04DX002 (ip), vehicle: saline with Tween-80) 95 % of control and 98 % of control; under setting [16], 101 % of control.

In the case of `CC(C)COP(=O)(Cc1ccccc1)OCC(C)C`, the T/C is 110 % of control under setting [5] and 101 % of control under setting [6].

On to `CC1=CC2=C(C=O)C(=O)[C@](C)(O)[C@@H](O)C2=CO1`, for which the T/C is 109 % of control (dose: 50.0 mg/kg/injection, schedule: Q01DX009 (ip), vehicle: saline with Tween-80); 93 % of control under setting [12]; 117 % of control under setting [14].

`COC1C(CO)OC(n2cnc3c(=S)nc(N)[nH]c32)C1O` (stereo not drawn): the T/C is 105 % of control (dose: 25.0 mg/kg/injection, schedule: Q01DX009 (ip), vehicle: carboxymethylcellulose (CMC)); 100 % of control (dose: 25.0 mg/kg/injection, schedule: Q01DX009 (ip), vehicle: saline); 103 % of control (dose: 50.0 mg/kg/injection, schedule: Q01DX009 (ip), vehicle: carboxymethylcellulose (CMC)); 116 % of control (dose: 50.0 mg/kg/injection, schedule: Q01DX009 (ip), vehicle: saline); 111 % of control (dose: 100.0 mg/kg/injection, schedule: Q01DX001 (ip), vehicle: carboxymethylcellulose (CMC)); 157 % of control under setting [17]. Moreover, the T/C (dose: 200.0 mg/kg/injection, schedule: Q01DX009 (ip), vehicle: carboxymethylcellulose (CMC)) is 155 % of control; the T/C under setting [18] is 168 % of control; the T/C (dose: 400.0 mg/kg/injection, schedule: Q01DX001 (ip), vehicle: carboxymethylcellulose (CMC)) is 154 % of control and 158 % of control.

In the case of `C1CCC2=NCCCN2CC1`, the T/C is 101 % of control (dose: 5.0 mg/kg/injection, schedule: Q01DX001 (ip), vehicle: saline); 101 % of control (dose: 10.0 mg/kg/injection, schedule: Q01DX001 (ip), vehicle: saline); 103 % of control (dose: 20.0 mg/kg/injection, schedule: Q01DX001 (ip), vehicle: saline); 97 % of control (dose: 40.0 mg/kg/injection, schedule: Q01DX001 (ip), vehicle: saline).

On to `Nc1nc(SCCO)nc2nc[nH]c12`, for which the T/C reads like this: under setting [12], 96 % of control; under setting [14], 95 % of control; under setting [16], 90 % of control.

Take `C#CC(=O)c1ccccc1`: the T/C (dose: 4.7 mg/kg/injection, schedule: Q01DX009 (ip), vehicle: saline with Tween-80) is 94 % of control; the T/C (dose: 18.8 mg/kg/injection, schedule: Q01DX001 (ip), vehicle: saline) was 98 % of control; the T/C (dose: 37.5 mg/kg/injection, schedule: Q01DX001 (ip), vehicle: saline) was 104 % of control.

For `NC(CSC(c1ccccc1)(c1ccccc1)c1ccc(C(=O)O)cc1)C(=O)O.[Ga]` (stereo not drawn), the T/C runs as follows: (dose: 100.0 mg/kg/injection, schedule: Q01DX001 (ip), vehicle: acetone) 96 % of control; under setting [17], 103 % of control; under setting [8], 106 % of control; (dose: 200.0 mg/kg/injection, schedule: Q01DX001 (ip), vehicle: acetone) 98 % of control; under setting [18], 90 % of control; under setting [9], 97 % of control. Also, the T/C is, setting by setting: (dose: 400.0 mg/kg/injection, schedule: Q01DX001 (ip), vehicle: acetone) 112 % of control; (dose: 400.0 mg/kg/injection, schedule: Q01DX009 (ip), vehicle: saline) 98 % of control; under setting [10], 100 % of control.

For `CCOC(=O)Nc1nccs1`, the T/C under setting [12] was 105 % of control and the T/C under setting [14] was 96 % of control.

For the origin of these results see PubChem BioAssay AID248 (DTP/NCI, 2004).
